Assay results published in ChEMBL document CHEMBL5512634, “Sulfone-based human liver pyruvate kinase inhibitors - Design, synthesis and in vitro bioactivity” (Eur J Med Chem, 2024).
Active and inactive are the calls of the source. No cut-off for these calls is given here.

Experiments:
Pyruvate kinase PKLR [1] = target: T1, Pyruvate kinase PKLR (Homo sapiens, UniProt P30613); test: Inhibition of full length N-terminal His-tagged human PKL (2 to 543 residues) expressed in Escherichia coli at 10 uM by kinase Glo luminescence based plate reader assay relative to control
Target sequence in this assay (P30613 whole entry, looked up, the tested form may be a part): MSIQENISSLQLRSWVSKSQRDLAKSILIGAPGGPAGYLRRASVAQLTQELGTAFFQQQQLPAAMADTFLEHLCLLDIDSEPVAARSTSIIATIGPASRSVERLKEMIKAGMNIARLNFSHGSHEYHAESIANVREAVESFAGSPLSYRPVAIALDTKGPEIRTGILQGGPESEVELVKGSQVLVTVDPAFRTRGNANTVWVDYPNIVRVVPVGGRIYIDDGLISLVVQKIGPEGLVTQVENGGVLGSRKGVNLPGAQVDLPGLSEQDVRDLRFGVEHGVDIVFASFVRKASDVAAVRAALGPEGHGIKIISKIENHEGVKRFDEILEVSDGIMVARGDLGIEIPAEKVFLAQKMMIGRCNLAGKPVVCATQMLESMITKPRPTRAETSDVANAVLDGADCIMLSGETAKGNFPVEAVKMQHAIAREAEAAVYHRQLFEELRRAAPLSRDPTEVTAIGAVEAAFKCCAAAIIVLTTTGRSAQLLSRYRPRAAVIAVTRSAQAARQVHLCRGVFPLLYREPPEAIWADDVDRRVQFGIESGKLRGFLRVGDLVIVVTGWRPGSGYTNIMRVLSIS

HepG2 = test: Cytotoxicity against PKM2 knock out human HepG2 cells at 1 to 10 uM measured for 24 to 72 hrs; type: toxicity, cell-based; conditions: hepg2, 10 µM, dose lower 1 µM, time lower 24 hrs, dose upper 10 µM, time upper 72 hrs
Pyruvate kinase PKLR [2] = target: T1, Pyruvate kinase PKLR; test: Inhibition of PKR (unknown origin)
Target sequence in this assay (P30613 whole entry, looked up, the tested form may be a part): as above

Pyruvate kinase PKLR [3] = target: T1, Pyruvate kinase PKLR; test: Inhibition of full length N-terminal His-tagged human PKL (2 to 543 residues) expressed in Escherichia coli by kinase Glo luminescence based plate reader assay
Target sequence in this assay (P30613 whole entry, the tested form may be a part): as the sequence (P30613 whole entry, looked up, the tested form may be a part) above

O=S1(=O)Oc2c(ccc(O)c2O)-c2cc(O)ccc21
inhibition (Pyruvate kinase PKLR [1]): Active

O=S1(=O)Oc2c(ccc(O)c2O)-c2cc(O)c(O)cc21
Activity (HepG2): Non-Toxic

O=S1(=O)Oc2cc(O)c(O)c(O)c2-c2cc(O)c(O)cc21
IC50 (Pyruvate kinase PKLR [2]): 180 nM | IC50 (Pyruvate kinase PKLR [3]): 70 nM
